The target in the assay is Pyruvate kinase PKM (Homo sapiens, UniProt P14618). The experiment in a line: Activation Assay Measuring In Vitro Activation of Recombinant Human PKM2. Here is the method: Human PKM2 was diluted into Assay Buffer comprising 50 mM imidazole, 50 mM KCl, 7 mM MgCl2, 0.01% Tween20, 0.05% BSA (pH 7.2) to a final concentration of 5 pM. Enzyme-Assay Buffer mix was dispensed into a 384-well shallow-well white-walled plate (PerkinElmer) and Test Compounds added by acoustic dispense (Echo , Labcyte Inc.). […] Kinase-Glo Plus reagent was added to each well and the plates incubated for a further 15 minutes on an orbital shaker in the dark (300 rpm, 26° C.) before luminescence measurement on a plate reader (PHERAstar FSX, BMG Labtech).
Chain of Pyruvate kinase PKM (P14618 whole entry): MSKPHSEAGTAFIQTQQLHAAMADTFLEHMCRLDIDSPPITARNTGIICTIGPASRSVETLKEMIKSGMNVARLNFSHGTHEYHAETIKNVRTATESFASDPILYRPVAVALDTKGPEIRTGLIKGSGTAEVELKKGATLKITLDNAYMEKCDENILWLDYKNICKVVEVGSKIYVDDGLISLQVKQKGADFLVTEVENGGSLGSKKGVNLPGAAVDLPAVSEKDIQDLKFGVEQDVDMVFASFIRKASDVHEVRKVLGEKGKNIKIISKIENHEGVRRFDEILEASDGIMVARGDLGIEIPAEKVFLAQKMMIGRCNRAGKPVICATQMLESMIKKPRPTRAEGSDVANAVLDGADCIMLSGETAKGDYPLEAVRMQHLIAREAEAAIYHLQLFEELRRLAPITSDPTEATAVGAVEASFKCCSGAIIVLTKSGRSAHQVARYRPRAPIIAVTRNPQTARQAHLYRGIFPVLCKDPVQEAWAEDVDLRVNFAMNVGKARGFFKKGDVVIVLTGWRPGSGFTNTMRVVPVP

Each structure is given as a SMILES string.

Turning to `Cn1c2c(c3cnn(Cc4cccc(C(C)(C)O)c4)c(=O)c31)CCN(S(C)(=O)=O)C2` [US20240409542, Example 33], the EC50 came to 354 nM.

(Values after BindingDB's records for patent US20240409542 (Sitryx Therapeutics, 2024).)
